Experimental data taken from patent US20210340552A1, “High-Throughput Screening Platform for Longevity Genes and Anti-Aging Drugs” (The Regents of the University of California, priority 2018, published 2021).

Test system: yeast cells
Assay: Replicative lifespan (RLS) measurement with the DAP yeast strain and 96-well microfluidic device
Format: cell-based, Saccharomyces cerevisiae
Description: The IDS2GH or IDS2RH transformed yeast cells were cultured in YEPG [For 1 L medium: Bacto yeast extract (Difco 0127-17) (1%) 10 g, Bacto peptone (Difco 0118-17) (2%) 20 g, Galactose (2%) 20 g] at 30° C. for 15 hours, after which time the cells were diluted 1:20 in fresh YEPG and grown for another 3 hours. The cells were centrifuged and washed 3 times with YEP [For 1 L medium: Bacto yeast extract (Difco 0127-17) (1%) 10 g, Bacto peptone (Difco 0118-17) (2%) 20 g]. Finally, the cells were resuspended in an equal volume of YEP, then diluted at a 1:5 ratio in fresh YEP and incubated at 30° C. for another 3 hours; this last step allowed separation of any aggregates of cells.
The water in the wells was discarded, and 100 μl of cells (˜1×10^6 cells/ml) were loaded into inlet wells in columns 1, 4, 7, 10 of the multiwell plate. The plate was then sealed with the 32-channel cover by applying vacuum to the sealing channel, and cell flow started by applying 4 psi air pressure to the loading channel for 10 seconds. Any remaining cells in the wells are discarded, and 300 μl autoclaved ddH2O added to wash the cells, applying 25 psi air pressure to the loading channel for 10 seconds. The remaining water in the wells was again discarded, and 300 μl YEPD [For 1 L medium: Bacto yeast extract (Difco 0127-17) (1%) 10 g, Bacto peptone (Difco 0118-17) (2%) 20 g, Dextrose (2%) 20 g] added, and the cells were washed by applying 2 psi air pressure to the loading channel for 240 seconds. The remaining YEPD in the wells was discarded and 300 μl fresh YEPD added to each well in columns 1, 3, 4, 6, 7, 9, 10, 12. […]
Using the DAP system and the high-throughput microfluidic devices, the lifespan of a number of mutants and the effect of several drugs on lifespan were analyzed. […] The total number of cells in each trapping unit was counted and the fluorescent signal was used to determine the number of DAP mother cells loaded in the trapping unit, allowing the lifespan of the mother cells to be determined unambiguously. […]

Question: `CN(C)C(=N)N=C(N)N` [metformin] was tested. Which lifespan extension effect (range of concentrations tested from 4 μM to 8 mM, data not shown) did it give?
Answer: not observed

Question: Which lifespan extension (100 nM concentration, three independent experiments, p=2.4×10^−10, FIG. 4A) does the source give for `CO[C@H]1C[C@@H]2CC[C@@H](C)[C@@](O)(O2)C(=O)C(=O)N2CCCC[C@H]2C(=O)O[C@H]([C@H](C)C[C@@H]2CC[C@@H](O)[C@H](OC)C2)CC(=O)[C@H](C)/C=C(\C)[C@@H](O)[C@@H](OC)C(=O)[C@H](C)C[C@H](C)/C=C/C=C/C=C/1C` [rapamycin] here?
Answer: 19%

Question: How did the lifespan extension (200 JIM concentration, p=6×10^−6, FIG. 4B) turn out when `NCCCCNCCCN` [spermidine] was run?
Answer: 28%
